Measured values reported in patent US20220347299A1, “FLUORESCENT SYSTEMS FOR BIOLOGICAL IMAGING AND USES THEREOF” (LIGHTOX LIMITED, priority 2019, published 2022).

Experiments:
[1] = Peak absorption and fluorescence emission wavelengths in solvents; assay type: physicochemical; conditions: for λem(max)/nm: 100 nM, excitation at peak of absorption; for λabs(max)/nm: 10 μM
Experimental: Peak absorption and fluorescence emission wavelengths of compounds 6, 7, 12, 13, 14, 15, 19, 23, 27, 30 and 34 were measured in a variety of solvents, and the results are shown in Table 1. Absorption measurements were recorded at a concentration of 10 μM, and emission measurements were recorded at a concentration of 100 nM. Emission spectra were recorded with excitation at the peak of absorption (S0→S1).

HaCaT keratinocytes = assay: Co-staining with organelle markers, co-localisation (PCC); assay type: cell-based; conditions: 1 μM compound, 30 minutes, BODIPY ER-Tracker Red
Experimental: To study the localisation of compounds in biological cells, co-staining of compounds of formula I with specific organelle markers (fluorescent dyes and antibodies) within biological cells was conducted. The following compounds were studied: compounds 6, 7, 12, 13, 14 and 15. HaCaT keratinocyte cell lines were used for the following experimental procedures. The cells were incubated in cell culture media (94% Dulbecco's Modified Eagle Medium (DMEM), 5% Foetal Bovine Serum (FBS) and 1% Penicillin Streptomycin solution (Pen-Strep). The cells were plated in 8-well plates, at a concentration of 25,000 cells per ml. 200 μl of cell suspension was added to each well, and the cells were incubated for 2 days before staining and imaging was carried out. In order to visualise the mitochondria, cells were probed with the mitochondrial dye MitoTracker® Deep Red. Cells to be stained were incubated with 200 μl MitoTracker® Deep Red solution (200 nM MitoTracker® and 1 μM Formula I compound in cell culture media) per well (N=3) for 30 minutes. Nile Red was used to identify lipids within the cells. 200 μl Nile Red Lipophilic dye (10 μg/ml Nile Red and 1 μM Formula I compound in cell culture media) was added to each well (N=3) and incubated for 30 minutes. For the detection of lysosomes within the cells, LysoTracker® Red DND-99 dye was used. 200 μl LysoTracker® Red DND-99 (50 nM LysoTracker® and 1 μM Formula I compound solution in cell culture media) was added to each well (N=3) and incubated for 30 minutes. For visualisation of the endoplasmic reticulum (ER), cells were stained with BODIPY® ER-Tracker® Red. 200 μl BODIPY ER-Tracker® Red (1 μM BODIPY® and 1 μM Formula I compound solution in cell culture media) was added to each well (N=3) and incubated for 30 minutes. Following incubation, the cell culture media containing dye was removed, and cells were washed twice with 200 μl phosphate buffered saline (PBS). After washing, 200 μl PBS was added into each well for imaging. For visualisation of the nuclear lamina, cells were probed with an anti-lamin A/C antibody. The cells were plated on 22×22 mm cover slips (10,000 cells/ml) and incubated for 2 days before staining. The cells were washed with PBS to remove excess media before staining. The cells were fixed with 4% paraformaldehyde (PFA) for 10 minutes at room temperature, before being washed twice in PBS for 5 minutes. Following washing, the cells were permeabilised in 0.4% Triton X-100 in PBS for 10 minutes. The cells were subsequently washed three times in PBS for 5 minutes, before being incubated in blocking buffer (1% BSA, 0.1% fish gelatine and 0.1% Triton X-100 in PBS) for 15 minutes at room temperature. The cells were incubated in primary antibody (mouse anti-lamin A/C IgG in blocking buffer) for 1 hour at room temperature. The cells were then washed twice in blocking buffer and incubated in secondary antibody (anti-mouse Alexa-594 IgG in blocking buffer) for 30 minutes at room temperature. Cells were washed twice in PBS for 10 minutes at room temperature. For cell staining with compounds of formula I, 5 μM of the compound of formula I in PBS was added to the cells for 30 minutes at room temperature. Cells were then washed five times for 5 minutes in PBS. Following washing, the cells were mounted onto non-charged microscopy slides using 6 μl Mowiol® per cover slip as mounting media. A Zeiss 880 confocal microscope was used for all the imaging work. [table] Image) Coloc2 software was used to calculate co-localization statistics between the compounds of formula I and the organelle marker images. The background was subtracted from each image and a region of interest (ROI) was used to target the analysis. The point spread function (PSF) of each image was calculated as 2.0 and Coastes' iterations was set to 100. The statistic quantified was the Pearson's Correlation Coefficient (PCC). PCC gives a number ranging from +1 to −1:1=perfect co-localisation; 0=no relationship; and, −1=perfect anti-co-localisation. […]

black-grass cells = assay: Cytotoxicity assay (FDA/PI) in black-grass cell suspension culture; assay type: cell-based
Experimental: 5 mL of black-grass cell suspension culture was treated with 0.1, 1, 5, and 10 μM of compound numbers 7, 14, 12 and 15 for 1 hour at room temperature. Cells treated with 0.1% DMSO were used as a control. Cells were irradiated (˜365 nm) for 5 minutes before being incubated at 25° C., 150 rpm for 24 hours. In addition, the cytotoxicity of the compounds without irradiation was also assessed. Cell viability of five biological replicates for each concentration were determined via fluorescence assay (FDA/PI) assay. Percentage of cell viability was calculated using following formulation:
% viability={live cells (FDA)/(live cells+dead cells)}×100
The statistical analysis of percentage of cell viability was performed through one-way analysis of variance (ANOVA) followed by Tukey HSD posthoc test using SPSS 23 (IBM, Chicago, Ill., USA).

[2] = Photophysical comparison of para- and ortho-substituted compounds in chloroform; assay type: physicochemical; conditions: for excitation by 405 nm violet excitation laser light source (absorption at this wavelength): Chloroform
Experimental: To compare the photophysical behaviour of para-substituted compounds of the invention with ortho-substituted compounds, compound 73 and reference compound 77 were synthesised in accordance with Example 1:
Solutions of compounds 73 and 77 were prepared at concentrations of 10 μM and 100 nM in chloroform. The absorption spectra of each compound (10 μM) was recorded using a CARY100 UV-Visible spectrometer, from 200-800 nm, and is shown in FIG. 3a after solvent background subtraction. […] Also shown in FIG. 3a is the approximate bandwidth of a 405 nm violet excitation laser light source that is commonplace on fluorescence microscopes used for cellular imaging studies.
To assess this effect and to compare the fluorescence emission properties of 73 and 77, solutions of both compounds in chloroform (100 nM) were excited at both 360 nm and 405 nm. At 360 nm excitation, 73 and 77 were excited with high efficiency since this wavelength is close to the absorption maxima of both compounds.
Both compounds were also excited at 405 nm to compare their respective suitabilities towards imaging using a typical fluorescence microscope.

[3] = 0.1, 1, 5, 10 μM, with and without ~365 nm irradiation 5 minutes, 24 hours

Structure (SMILES) | λem(max)/nm ([1]; Chloroform) [nm] | λabs(max)/nm ([1]; Chloroform) [nm] | λem(max)/nm ([1]; Toluene) [nm] | λabs(max)/nm ([1]; Toluene) [nm] | λem(max)/nm ([1]; DCM) [nm] | λabs(max)/nm ([1]; DCM) [nm] | average PCC Value with BODIPY ER-Tracker (HaCaT keratinocytes) | further results
COC(=O)/C=C/c1ccc(C#Cc2ccc(N3CCC3)cc2)cc1 [Compound 30, methyl (2E)-3-(4-{2-[4-(azetidin-1-yl)phenyl]ethynyl}phenyl)prop-2-enoate] | 535 | 374 | – | – | – | – | – | –
COCCN1C(=O)/C(=C/c2ccc(C#Cc3ccc(N4CCNCC4)cc3)cc2)N=C1C [Compound 19, (4Z)-1-(2-methoxyethyl)-2-methyl-4-[(4-{2-[4-(piperazin-1-yl)phenyl]ethynyl}phenyl)methylidene]-4,5-dihydro-1H-imidazol-5-one] | 584 | 403 | 515 | 403 | – | – | – | λabs(max)/nm ([1]; MeOH): 395 nm
COC(=O)/C=C/c1ccc(C#Cc2ccc(N3CCN(CCC[P+](c4ccccc4)(c4ccccc4)c4ccccc4)CC3)cc2)cc1.[Br-] [Compound 14, (3-{4-[4-(2-{4-[(1E)-3-methoxy-3-oxoprop-1-en-1-yl]phenyl}ethynyl)phenyl]piperazin-1-yl}propyl)triphenylphosphonium bromide] | – | – | 506 | 367 | 531 | 361 | 0.68 | black-grass cell viability (black-grass cells; 1 μM, also in non-irradiation treatment): significantly reduced; dependence of cytotoxic effect on irradiation (black-grass cells; black-grass cells, ~365 nm, 5 minutes): independent of irradiation
O=C1/C(=C/c2ccc(C#Cc3ccc(N4CCNCC4)cc3)cc2)N=C(c2ccccc2)N1CCN1CCOCC1 [Compound 23, (4Z)-1-[2-(morpholin-4-yl)ethyl]-2-phenyl-4-[(4-{2-[4-(piperazin-1-yl)phenyl]ethynyl}phenyl)methylidene]-4,5-dihydro-1H-imidazol-5-one] | 616 | 424 | – | – | – | – | – | –
COC(=O)/C=C/c1ccc(C#Cc2ccc(N(C)CCNS(=O)(=O)c3ccc(C)cc3)cc2)cc1 [Compound 15, methyl (2E)-3-{4-[2-(4-{methyl[2-(4-methylbenzenesulfonamido)ethyl]amino}phenyl)ethynyl]phenyl}prop-2-enoate] | – | – | 473 | 381 | 545 | 377 | 0.30 | black-grass cell viability (black-grass cells; [3]): did not reduce black-grass cell viability regardless of concentration or irradiation treatment
COC(=O)/C=C/c1ccc(C#Cc2ccc(N3CCNCC3)cc2)cc1 [Compound 7, methyl (2E)-3-(4-{2-[4-(piperazin-1-yl)phenyl]ethynyl}phenyl)prop-2-enoate] | – | – | 504 | 361 | 563 | 362 | 0.32 | black-grass cell viability (black-grass cells; [3]): did not reduce black-grass cell viability regardless of concentration or irradiation treatment
CC(C)(C)OC(=O)/C=C/c1ccc(C#Cc2ccc(N3CCNCC3)cc2)s1 [Compound 27, tert-butyl (2E)-3-(5-{2-[4-(piperazin-1-yl)phenyl]ethynyl}thiophen-2-yl) prop-2-enoate] | – | – | 493 | 380 | 524 | 371 | – | –
NCCN1C(=O)/C(=C/c2ccc(C#Cc3ccc(N4CCC4)cc3)cc2)N=C1c1ccccc1 [Compound 34, (4Z)-1-(2-aminoethyl)-4-[(4-{2-[4-(azetidin-1-yl)phenyl]ethynyl}phenyl)methylidene]-2-phenyl-4,5-dihydro-1H-imidazol-5-one] | 628 | 432 | – | – | – | – | – | –
COC(=O)/C=C/c1ccc(C#Cc2ccc(N3CCN(C(C)=O)CC3)cc2)cc1 [Compound 13, methyl (2E)-3-(4-{2-[4-(4-acetylpiperazin-1-yl)phenyl]ethynyl}phenyl) prop-2-enoate] | – | – | 464 | 358 | 547 | 361 | −0.18 | –
COC(=O)/C=C/c1ccc(C#Cc2ccc(N3CCN(C)CC3)cc2)cn1 [Compound 73, methyl (2E)-3-(5-{2-[4-(4-methylpiperazin-1-yl)phenyl]ethynyl}pyridin-2-yl)prop-2-enoate] | – | – | – | – | – | – | – | excitation by 405 nm violet excitation laser light source (absorption at this wavelength) ([2]; 10 μM): capable of efficient excitation; fluorescence emission at 360 nm excitation, compared to the other compound ([2]; chloroform, 100 nM): substantially stronger fluorescence emission; fluorescence emission at 405 nm excitation ([2]; chloroform, 100 nM): of a similar intensity to excitation at 360 nm; shift of fluorescence emission compared to compound 77 ([2]; chloroform, 100 nM, 360 nm excitation): significant bathochromic shift
COC(=O)/C=C/c1ccc(C#Cc2ccccc2N2CCN(C)CC2)cn1 [Compound 77, methyl (2E)-3-(5-{2-[2-(4-methylpiperazin-1-yl)phenyl]ethynyl}pyridin-2-yl)prop-2-enoate, reference compound] | – | – | – | – | – | – | – | excitation by 405 nm violet excitation laser light source (absorption at this wavelength) ([2]; 10 μM): absorbed only very weakly; fluorescence emission at 405 nm excitation ([2]; chloroform, 100 nM): only very weak fluorescence emission; absorption spectrum, ortho-position 77 relative to para-position 73 ([2]; chloroform, 10 μM, 200-800 nm): substantial hypsochromic shift and reduction in extinction coefficient
